# Reference: patent US20260227411A1, “CONJUGATED METABOLITES FOR CANCER DETECTION AND TREATMENT” (VANDERBILT UNIVERSITY, priority 2023, published 2026)
# What was measured:
# [1] = tested on: normal gastric organoids; assay: A939572 treatment of normal gastric organoids; type: cell-based, mouse; conditions: 100 nM A939572
# Method: Mouse gastric organoids were established from corpus of untreated or Gif-rtTA; TetO-Cre; KrasG12D (GCK) mouse stomachs as described previously. The GCK mouse gastric organoids were cultured in ECM Gel (E1270, Sigma-Aldrich) or Cultrex® Reduced Growth Factor Basement Membrane Extract, Type R1 (3433-005-R1, R&D systems) with Mouse IntestiCult medium (06005, StemCell Technology) supplemented with 1% of penicillin/streptomycin (2441832, Gibco) in 48-well plates. The medium was replaced every 3 days and organoids were split every 3 to 5 days. Human gastric organoids were previously established from patients who underwent curative gastrectomy as described. […]
# (§1) For metabolic enzyme inhibitor treatment, the media was switched to metabolic enzyme inhibitor containing media at one day after splitting the mouse gastric organoids and cultured for 3 days. […] Quantitative data analyses were performed using at least 3 wells of images at 4× magnification. For measurement of organoid growth, phase contrast images of organoids were captured over time and measured at the widest diameters using the ZEN 3.3 blue edition (Zeiss) measuring tool. […]
# [2] = tested on: human gastric organoid lines; assay: A939572 treatment of human gastric organoid lines; type: cell-based; conditions: 1 μM for human
# [3] = tested on: dysplastic organoids; assay: Metabolic enzyme inhibitor treatment of mouse dysplastic organoids; type: cell-based
# Method: Mouse gastric organoids were established from corpus of untreated or Gif-rtTA; TetO-Cre; KrasG12D (GCK) mouse stomachs as described previously. The GCK mouse gastric organoids were cultured in ECM Gel (E1270, Sigma-Aldrich) or Cultrex® Reduced Growth Factor Basement Membrane Extract, Type R1 (3433-005-R1, R&D systems) with Mouse IntestiCult medium (06005, StemCell Technology) supplemented with 1% of penicillin/streptomycin (2441832, Gibco) in 48-well plates. The medium was replaced every 3 days and organoids were split every 3 to 5 days. Human gastric organoids were previously established from patients who underwent curative gastrectomy as described. The human gastric organoids were cultured in Corning™ Matrigel™ Membrane Matrix (356231, Thermo Fisher Scientific) with Human IntestiCult medium (06010, StemCell Technology) supplemented with 1% of penicillin/streptomycin, 0.2% of MycoZap (VZA-2031, Lonza) in a 48-well plate.
# as §1, with “containing media at one day after splitting the mouse gastric organoids and cultured for 3 days. For metabolite treatment, mouse gastric organoids were treated 100 nM A939572 with metabolites (cis-11-eicosenoic acid or cis-7,10,13,16-docosatetraenoic acid) at one” for “containing media at one”
# To determine the role of metabolic switch in dysplastic cells, expression levels of key metabolic enzymes, important for glycolysis or FA metabolism, were examined using gastric organoids established from each stage of GCK mice (FIG. 4A). […] The functional roles of metabolic pathways were assessed using key enzyme inhibitors in dysplastic organoids which highly expressed SCD1 (FIG. 4E). […]
# [4] = tested on: Gif-rtTA; TetO-Cre; Kras^G12D (GCK) mice; assay: In vivo A939572 treatment of GCK mice; conditions: 20 mg/kg intraperitoneal daily for 2 weeks
# Method: All experiments involving mice used in this study followed protocols approved by the Institutional Animal Care and Use Committees of Vanderbilt University Medical Center. Littermates or age-matched mice were randomly allocated to experimental or control groups. Animal weights were recorded at initiation of experiment and at the time of euthanasia. To generate the Gif-rtTA; TetO-Cre; Kras^G12D (GCK) mice, the Gif-rtTA mice were crossed with TetO-Cre mice and Lox-Stop-Lox (LSL)-Kras^G12D mice (no. 006224 and 008179, Jackson Laboratories). For the induction of Cre-mediated recombination, 6-week-old mice were administered with doxycycline water at a concentration of 1 mg/mL for 2 weeks. Mice were sacrificed at 2 to 14 weeks after doxycycline treatment for histological examination. For in vivo A939572 treatment, A939572 (HY-50709; MedChemExpress) was dissolved in dimethyl sulfoxide (DMSO) as a 100 mg/mL stock and stored at −80° C. in aliquots. The A939572 was administered daily for two weeks by intraperitoneal injection (20 mg/kg diluted in corn oil) to mice at 6 weeks after doxycycline treatment. Mice were sacrificed within a day after the last A939572 treatment.
# Mouse tissues were isolated and fixed overnight in 4% paraformaldehyde, embedded in paraffin. Paraffin-embedded sections were sectioned at a thickness of five-micrometer and stained with hematoxylin and eosin (H&E). For immunostaining, unstained paraffin tissue sections were deparaffinized in HistoClear (HS-200, National Diagnostics) and rehydrated through a serial dilution of ethanol. Antigen retrieval was performed in target retrieval solution (S1699 or S2367, Agilent) using a pressure cooker for 15 minutes. Sections were rinsed in dH2O and incubated with Serum-free Protein Block Solution (X0909, Agilent) for 1.5 hours at room temperature (RT). Sections were additionally incubated with Mouse on Mouse Blocking Reagent (MKB-2213-1, Vector Laboratories) for 30 min at RT to block nonspecific staining with primary antibodies generated in mice on mouse tissues. Primary antibodies were diluted in Antibody Diluent (S3022, Agilent) and applied to sections overnight at 4° C.
# For immunofluorescence, paraffin sections were washed with 1×PBS three times and incubated with Alexa-conjugated secondary antibodies (Life Technologies, 1:500) for 1 hour at RT. Sections were washed with 1×PBS three times and incubated with Hoechst 33342 (62249, Thermo Fisher Scientific, 1:5000) for 5 min at RT. The sections were then washed with 1×PBS three times and mounted with Prolong gold anti-fade reagent (P36934, Thermo Fisher Scientific). Images were captured on a Zeiss Axio Imager M2 microscope with Axiovision digital imaging system at 20× magnification. For immunohistochemistry, paraffin sections were washed with 1×PBS three times and incubated with HRP-conjugated secondary antibodies (MP-7402, Vector Laboratories) for 15 min at RT. Sections were washed with 1×PBS three times and incubated with Envision+ Detection System Peroxidase/DAB substrate (Dako). Sections were then washed with dH2O and counterstained Mayer's Hematoxylin (MHS32, Sigma-Aldrich). The sections were dehydrated and mounted with aqueous mounting medium. The sections were scanned on an SCN400 Slide Scanner (Leica Biosystems) at 20× magnification. TUNEL staining was performed using the Click-iT Plus TUNEL assay kit, according to the manufacturer's protocol (C10618, Life Technologies).
# H&E-stained sections were scanned in SCN400 Slide Scanner and analyzed by Aperio ImageScope software (Leica Biosystems). Gland types were classified using the same diagnostic criteria used for human tissue sections. Briefly, the gland representing foveolar hyperplasia without goblet cells and mucous metaplasia at the base was diagnosed as a pyloric metaplastic gland, while intestinal metaplasia was determined by presence of basophilic mucin droplet-containing cells in the foveolar region.
# [5] = tested on: dysplastic organoids; assay: Metabolite rescue of A939572-treated dysplastic organoids; type: cell-based, mouse
# Method: For metabolic enzyme inhibitor treatment, the media was switched to metabolic enzyme inhibitor containing media at one day after splitting the mouse gastric organoids and cultured for 3 days. For metabolite treatment, mouse gastric organoids were treated 100 nM A939572 with metabolites (cis-11-eicosenoic acid or cis-7,10,13,16-docosatetraenoic acid) at one day after splitting the mouse gastric organoids and cultured for 3 days. The EVOS M7000 inverted microscope (Thermo Fisher Scientific) or JuLI™ stage, a Real-Time Cell History Recorder (NanoEntek) were used to capture phase contrast images of the organoids or monitor the growth and morphological changes of the organoids in real-time. Quantitative data analyses were performed using at least 3 wells of images at 4× magnification. For measurement of organoid growth, phase contrast images of organoids were captured over time and measured at the widest diameters using the ZEN 3.3 blue edition (Zeiss) measuring tool. For Calcein AM/Ethidium-1(EthD-1) staining, mouse gastric organoids were cultured for 1 day after splitting and transferred to microfluidic-based flowchips (Protein Fluidics) that can enable 3D cell-based assay. The media containing 100 nM A939572 with metabolites (cis-11-eicosenoic acid or cis-7,10,13,16-docosatetraenoic acid) was added to the top of the organoids and cultured for 3 days. Then, the organoids were stained with […] (L3224, Thermo Fisher Scientific) for 30 min at 37° C. Confocal imaging was performed on a Zeiss LSM 880 using a 20× magnification. To prepare Formalin-Fixed, Paraffin-Embedded (FFPE) organoid sections, whole mouse or human gastric organoids in Matrigel™ were fixed in 4% PFA for 30 min at RT and washed with 1×PBS twice. The organoids were embedded in Epredia™ HistoGel™ (HG-4000-012, Thermo Fisher Scientific) and processed according to a standard histological protocol for paraffin embedding.
# To address how and why dysplastic cells utilize the SCD-dependent FA desaturation, experiments examined the functions of two different unsaturated long-chain FAs, MUFA (FFA 20:1) and PUFA (FFA 22:4), which were abundant in dysplasia. Two metabolites, Eicosenoic acid (EA; 20:1n9, MUFA) and Docosatetraenoic acid (DA; 22:4n6, PUFA) (FIG. 7A) were selected based on the enhanced fragment ions detected from imaging mass spectrometry (FIG. 3E). Dysplastic organoids were co-treated with A939572, in combination with either EA or DA for 3 days. […] To determine the subcellular localization of EA in dysplastic cells, EA was conjugated with NBD, a green-fluorescent compound (NBD-EA) (FIG. 7B and FIG. 8A-B). […] Since the EA is imported into mitochondria, experiments further examined whether the EA undergoes FA oxidation which occurs in the mitochondrial aerobic metabolism and produces energy substrate for the TCA cycle.
# [6] = tested on: NCI-N87; assay: EA-DM1 treatment of gastric cancer cell line NCI-N87; type: cell-based; conditions: 100 nM
# Method: (§2) FIG. 9A-B show cells treated with EA-DM1 (cis-11-eicosenoic acid conjugated to mertansine (DM1)). […] DMSO was used as a vehicle control. […] The NIH-3T3 cell line was used as a negative control, and mouse normal cells and DMSO were used as a vehicle control.
# (§3) To evaluate whether EA-DM1 (cis-11-eicosenoic acid conjugated to mertansine (DM1)) could be internalized and release free DM1 toxin into the cytosol, two different gastric cancer cell lines, AGS and NCI-N87, were treated with EA-DM1 for 2 days (FIG. 9A-B). Gastric cancer cells died within 2 days after the EA-DM1 treatment at 100 nM concentration (FIG. 9A).
# [7] = tested on: AGS; assay: EA-DM1 treatment of gastric cancer cell line AGS; type: cell-based
# Method: as §2, §3
# [8] = tested on: NIH-3T3 cells; assay: EA-DM1 treatment of NIH-3T3 cells (negative control); type: cell-based, mouse; conditions: 5 nM, 2 days
# Method: as §2, §3
# [9] = tested on: dysplastic cells; assay: Subcellular localization of NBD-EA in 2-dimensional monolayer culture; type: cell-based, mouse
# Method: Mouse gastric organoids were dissociated into single cells and dissociated cells (5,000 cells/well) were seeded on the collagen-coated 8-well chamber slide (ibidi) in Mouse IntestiCult medium (06005, StemCell Technology) for two days until the cells reach at 50% confluency. The cells were incubated with NBD (Compound A) or NBD-conjugated Eicosenoic acid over time and then stained with 100 nM MitoTracker™ Red CMXRos (M7512, Thermo Fisher Scientific) for 20 min at 37° C. The cells were washed with pre-warmed 1×PBS three times and counterstained with Hoechst for 5 min at RT. Confocal imaging was performed on a Zeiss LSM 880 using 63× magnification.
# [10] = co-treated with 100 nM A939572 for 3 days
smiles,measurement,setting,value
"CNC(=O)c1cccc(NC(=O)N2CCC(Oc3ccccc3Cl)CC2)c1 [A939572, 4-(2-chlorophenoxy)-N-(3-(methylcarbamoyl)phenyl)piperidine-1-carboxamide]",response of normal gastric organoids,[1],did not show any significant changes
same,time within which organoids died after treatment,[2]; organoid lines with dysplastic histology expressing both SCD and Trop2,≤ 6 days
same,response to treatment,"[2]; organoids with low level of SCD, Trop2 negative (metaplastic)",did not respond to the treatment
same,time within which dysplastic organoid growth and survival were impeded,[3]; 100 nM A939572,≤ 1 days
same,cell proliferation (Ki-67) in dysplastic organoids,"[3]; 100 nM A939572, IF staining",a decrease in cell proliferation
same,cleaved caspase-3 positive apoptotic cells in dysplastic organoids,"[3]; 100 nM A939572, IF staining",accumulation of cleaved caspase-3 positive apoptotic cells in the central lumen of dysplastic organoids
same,F4/80+CD68+ macrophages,[4],slightly increased only at the base of glands
same,F4/80+CD68- macrophage infiltration,[4],significantly increased in the transitioning and surface areas
same,SPEM cells after treatment,[4],still present at the gland base and not co-positive for cleaved caspase-3 or TUNEL signal
same,"dead cells within the transitioning cell zone (cleaved caspase-3, TUNEL)",[4],significant increase in dead cells
same,effects in other organs,[4]; at 6 weeks after doxycycline,without any effects in other organs
same,gastric mucosa histology (H&E),[4]; at 6 weeks after doxycycline,flattened mucosa and loss of histological characteristics of dysplastic cells in the transitioning and surface areas of glands
"CCCCCC=CCC=CCC=CC/C=C\CCCCCC(=O)O [DA, cis-7,10,13,16-docosatetraenoic acid]",rescue of dysplastic organoids from SCD inhibition (organoid size),[5]; [10],did not show any differences compared to the organoids treated only with A939572
"CCCCCCCC/C=C\CCCCCCCCCC(=O)O [EA, cis-11-eicosenoic acid]",organoid structure,[5]; [10],not disrupted and showed clear central lumens
same,rescue of dysplastic organoids from SCD inhibition (organoid size),[5]; [10],recovered from SCD inhibition and displayed a significant increase in size
"CCCCCCCC/C=C\CCCCCCCCCC(=O)N1CCN(C(=O)CSCCC(=O)N(C)[C@H](C)C(=O)O[C@@H]2CC(=O)N(C)c3cc(cc(OC)c3Cl)C/C(C)=C/C=C/[C@H](OC)[C@]3(O)C[C@@H](OC(=O)N3)[C@H](C)[C@H]3O[C@@]32C)CC1 [EA-DM1, (1^4S,1^6S,3^2S,3^3R,2R,4S,10E,12E,14R)-8^6-chloro-1^4-hydroxy-8^5,14-dimethoxy-3^3,2,7,10-tetramethyl-1^2,6-dioxo-7-aza-1(6,4)-oxazinana-3(2,3)-oxirana-8(1,3)-benzenacyclotetradecaphane-10,12-dien-4-yl N-(3-((2-(4-((Z)-icos-11-enoyl)piperazin-1-yl)-2-oxoethyl)thio)propanoyl)-N-methyl-L-alaninate]",time within which gastric cancer cells died after treatment,[6],≤ 2 days
same,targeting of gastric cancer cells,"[7]; 5 nM, 2 days",effectively targeted gastric cancer cells
same,time within which gastric cancer cells died after treatment,[7]; 100 nM,≤ 2 days
same,changes in normal mouse fibroblast cells,[8],no noticeable changes
"CCCCCCCC/C=C\CCCCCCCCCC(=O)Nc1ccc([N+](=O)[O-])c2nonc12 [NBD-EA, NBD-cis-11-Eicosenoic acid (C20:1, n-9)]",NBD fluorescent signal in dysplastic cells,[9]; 6 h after treatment,not detectable
same,NBD fluorescent signal in dysplastic cells,[9]; 24 h,strongly accumulated in mitochondria
same,NBD fluorescent signal in dysplastic cells,[9]; 48 h,weakly maintained
C1CCC(C(CC2CCCCN2)C2CCCCC2)CC1 (stereo not drawn) [perhexiline],organoid growth after co-treatment,"[5]; A939572, EA and perhexiline 10 μM, 3 days",did not display any significant increase in organoid growth
same,effect of FA oxidation inhibition on rescue by EA,"[5]; perhexiline 10 μM with A939572 and EA, 3 days",abolished rescue effects of EA in dysplastic organoids
